In patent US8410170B2, “Use of isothiocyanates compounds in treating prostatic diseases and skin cancer” (Wuxi JC Pharmaceutical Technology Co., Ltd., priority 2005, dated 2013):

Legend:
[1] = system: GSTP1; experiment: Western blot to detect GSTP1 protein in LNCaP cells; format: cell-based, human; conditions: LNCaP cells exposed 24 hrs
Method: Western blot to detect GSTP1 protein (FIG. 1): […] The cells were harvested, washed and total cellular proteins were extracted as described previously (Wang, […], et al. […] Cancer Res 61(20): 7544-51, 2001). Fifty μg cellular extracts were separated on a SDS-PAGE, electro-transferred to nitrocellulose filters, and immunoblotted initially with antibodies against GSTP1. The same membranes were stripped and re-probed with β-actin for loading control. The result was recorded by ECL films.

[2] = system: Sp1; experiment: Western blot to detect Sp1 in LNCaP cells; format: cell-based, human; conditions: 24 hrs
Method: (§1) The cells were harvested, washed and total cellular proteins were extracted as described previously (as Example 2). Fifty μg proteins were then subjected to electrophoresis in SDS-PAGE, electro-transferred to nitrocellulose filters, and immunoblotted initially with antibodies against AR, Sp1, and PSA. The same membranes were stripped and re-probed with β-actin for loading control. The result was recorded by ECL films.

[3] = system: PSA; experiment: Western blot to detect PSA in LNCaP cells; format: cell-based, human; conditions: 24 hrs
Method: as §1

[4] = system: human prostate cancer cell line LNCaP; experiment: MTT and SRB cell growth assay, LNCaP; format: cell-based; conditions: LNCaP; for IC50: Homo sapiens, MTT and SRB, read-out: IC50, growth inhibition
Method: MTT and SRB method as described in the reference (Kreis, Budman et al. 1997). Briefly, human prostate cancer cells grown exponentially were aliquoted into 96-well plates at a density of 5000 cells/200 μl per well. Twenty-four hrs after the incubation, the cells were exposed for three or seven days to serial dilutions of indicated isothiocyanate. After the incubation, 100 μl of the medium was removed from each of the wells and 50 μl solution of 3-(4,5-dimethyl-thiazol-2-yl)-2,5-diphenyltetrazolium bromide (MTT) was added, the cells were incubated for an additional 4 hrs and then 200 μl of 0.04 N HCl-isopropanol was added to each well to dissolve the black formazan precipitates. The absorbance was measured at wavelength 540 nm. For SRB method, remove the medium after 72 hrs. The cells on 96-well dishes were fixed with 10% trichloride acetic acid for 1 hr, air-dried for 24 hrs. The cells were then stained with 50 μl of SRB (sulforhodamine B) for […]. After extensive washes with 1% acetic acid for 5 times, air-dried, the purple protein-SRB complex was dissolved in 200 μl 10 mM Tris-HCl buffer (pH 10.0), and the absorbance was measured at the wavelength of 540 and 630 nm. The percent of cell survival (T/C%) were calculated based on the results of test groups to that of the control group. The semi-exponential curves of the percent of cell survival (T/C%) to the drug concentrations (FIG. 8) and IC50 were obtained by using Sigma-plot program.

[5] = system: transcription factor Sp1; experiment: Sp1-luc luciferase activity assay in transfected LNCaP AD cells; format: cell-based, human; conditions: 24 hrs
Text: The Sp1-luc and mtSp1-luc contain three tandem repeats of consensus Sp1 sites driving the luciferase gene and its mutant. […] Effectene transfection reagent and luciferase assay kit were acquired from Qiagen (Valencia, Calif., USA) and Promega (Madison, Wis., USA). Reagents for protein electrophoresis were purchased from Bio-Rad company (USA). The other chemicals were purchased from Sigma (St. Louis, Mo.) otherwise as indicated. […] (Gao, M., Ossowski, L., and Ferrari, A. C. Activation of Rb and decline in androgen receptor protein precede retinoic acid-induced apoptosis in androgen-dependent LNCaP cells and their androgen-independent derivative. J Cell Physiol, 179: 336-346, 1999). The AD and AI cells were maintained in RPMI-1640 with 10% fetal bovine serum (FBS) and charcoal stripped fetal bovine serum, penicillin-streptomycin for incubation at 5% CO2 and 37° C. respectively. […] After incubation for 24 hrs at 5% CO2 and 37° C., the cells were transfected with 1 μg/dish of SP1-luciferase gene (Sp1-luc), or its mutant mtSp1-luc using Effectene (Qiagen, Valencia, Calif.) as the transfection reagent. […] The cells were collected, washed, lysed, and the lysates were used for luciferase activity assay using Promega luciferase assay system.

[6] = system: LNCaP AD; experiment: MTT growth inhibition, hormone dependent LNCaP AD; format: cell-based; conditions: Homo sapiens, 168 h; LNCaP AD, seven days, MTT; read-out: IC50, growth inhibition
Text: (§2) The human prostate cancer cell line LNCaP AD was purchased from the American Type Culture Collection. LNCaP AI cell line was derived from LNCaP cells using a method described previously by Gao et al. (Gao, M., Ossowski, L., and Ferrari, A. C. Activation of Rb and decline in androgen receptor protein precede retinoic acid-induced apoptosis in androgen-dependent LNCaP cells and their androgen-independent derivative. J Cell Physiol, 179: 336-346, 1999). The AD and AI cells were maintained in RPMI-1640 with 10% fetal bovine serum (FBS) and charcoal stripped fetal bovine serum, penicillin-streptomycin for incubation at 5% CO2 and 37° C. respectively.
(§3) MTT: MTT and SRB method were used to determine the effects of various isothiocyanates on cell growth as described previously (Kreis, Budman et al, 1997). Briefly, human prostate cancer cell line LNCaP grown exponentially were aliquoted into 96-well plates at a density of 2500 cells/200 μl per well. Twenty-four hrs after the incubation, the cells were exposed for seven days to serial dilutions of indicated isothiocyanate or paclitaxel. […] The absorbance was measured at wavelength 540 nm. The percent of cell survival (T/C%) were calculated based on the results of test groups to that of the control group. […]

[7] = system: LNCaP AI; experiment: MTT growth inhibition, hormone independent LNCaP AI; format: cell-based; conditions: Homo sapiens, 168 h; LNCaP AI, seven days, MTT; read-out: IC50, growth inhibition
Text: as §2, §3

For `C=CCN=C=S` [AITC, allyl isothiocyanate], the “expression of GSTP1 (Western blot)” value [1] was “effectively induce”, the “expression of Sp1 (Western blot)” value [2] was “minimal activities” and the “expression of PSA (Western blot)” value [3] was “minimal activities”. For the same molecule, the “Percent of Cell Survival (T/C %)” value ([4]; 0.0390 μM) was 98.84%, the “Percent of Cell Survival (T/C %)” value ([4]; 0.0780 μM) was 98.92% and the “Percent of Cell Survival (T/C %)” value ([4]; 0.1562 μM) was 98.26%. The “Percent of Cell Survival (T/C %)” value ([4]; 0.3125 μM) was 98.55%, the “Percent of Cell Survival (T/C %)” value ([4]; 0.6250 μM) was 97.10% and the “Percent of Cell Survival (T/C %)” value ([4]; 1.2500 μM) was 99.49%. For the same molecule, the “Percent of Cell Survival (T/C %)” value ([4]; 2.5000 μM) was 83.95%, the “Percent of Cell Survival (T/C %)” value ([4]; 5.0000 μM) was 47.60% and the “Percent of Cell Survival (T/C %)” value ([4]; 10.0000 μM) was 41.01%. The “Percent of Cell Survival (T/C %)” value ([4]; 20.0000 μM) was 38.69% and the IC50 [4] was roughly 10000 nM.
In the case of `S=C=NCc1ccccc1` [BITC, benzyl isothiocyanate], the “expression of GSTP1 (Western blot)” value [1] is reported as “effectively induce”, the “expression of Sp1 (Western blot)” value [2] is reported as “significantly inhibited” and the “expression of PSA (Western blot)” value [3] is reported as “significantly inhibited”. For the same molecule, the “Percent of Cell Survival (T/C %)” value ([4]; 0.0390 μM) was 94.09%, the “Percent of Cell Survival (T/C %)” value ([4]; 0.0780 μM) was 95.64% and the “Percent of Cell Survival (T/C %)” value ([4]; 0.1562 μM) was 97.91%. For the same molecule, the “Percent of Cell Survival (T/C %)” value ([4]; 0.3125 μM) was 95.82%, the “Percent of Cell Survival (T/C %)” value ([4]; 0.6250 μM) was 71.25% and the “Percent of Cell Survival (T/C %)” value ([4]; 1.2500 μM) was 27.95%. The “Percent of Cell Survival (T/C %)” value ([4]; 2.5000 μM) was 14.83%, the “Percent of Cell Survival (T/C %)” value ([4]; 5.0000 μM) was 5.07% and the “Percent of Cell Survival (T/C %)” value ([4]; 10.0000 μM) was 0.88%. For the same molecule, the “Percent of Cell Survival (T/C %)” value ([4]; 20.0000 μM) was 0.94% and the IC50 [4] was 800 to 1500 nM.
With `O=S(=O)(O)c1ccc(N=C=S)cc1` [SPITC, 4-sulfophenylisothiocyanate] the “expression of GSTP1 (Western blot)” value [1] was “effectively induce”, the “expression of Sp1 (Western blot)” value [2] was “no effect” and the “expression of PSA (Western blot)” value [3] was “no effect”. For the same molecule, the “Percent of Cell Survival (T/C %)” value ([4]; 0.0390 μM) was 99.54%, the “Percent of Cell Survival (T/C %)” value ([4]; 0.0780 μM) was 101.43% and the “Percent of Cell Survival (T/C %)” value ([4]; 0.1562 μM) was 101.43%. For the same molecule, the “Percent of Cell Survival (T/C %)” value ([4]; 0.3125 μM) was 99.66%, the “Percent of Cell Survival (T/C %)” value ([4]; 0.6250 μM) was 98.26% and the “Percent of Cell Survival (T/C %)” value ([4]; 1.2500 μM) was 101.56%. For the same molecule, the “Percent of Cell Survival (T/C %)” value ([4]; 2.5000 μM) was 104.37%, the “Percent of Cell Survival (T/C %)” value ([4]; 5.0000 μM) was 100.60% and the “Percent of Cell Survival (T/C %)” value ([4]; 10.0000 μM) was 101.33%. The “Percent of Cell Survival (T/C %)” value ([4]; 20.0000 μM) was 99.88%.
In the case of `CC(/C=C/C(=O)NO)=C\[C@@H](C)C(=O)c1ccc(N(C)C)cc1` [TSA, trichostatin A, reference compound], the “luciferase activity of Sp1-luc transfected gene” value [5] is reported as “significantly stimulated”.
`CC(=O)O[C@H]1C(=O)[C@@]2(C)[C@H]([C@H](OC(=O)c3ccccc3)[C@]3(O)C[C@H](OC(=O)[C@H](O)[C@@H](NC(=O)c4ccccc4)c4ccccc4)C(C)=C1C3(C)C)[C@]1(OC(C)=O)CO[C@@H]1C[C@@H]2O` [paclitaxel, reference compound] was tested, and the IC50 [6] was 0.01 nM and the IC50 [7] was 0.6 nM.
